Laboratory results published in patent US20260207720A1, “COMPOSITIONS AND METHODS FOR TREATING FUNGAL INFECTIONS” (MUCPharm Pty Ltd, priority 2022, published 2026).
≈ marks a conversion by molar mass, not a printed value. Like-named read-outs stand apart in the source and are kept apart here.

Legend:
Assay type in all cases: cell-based
[1] = tested on: Rhizopus arrhizus; assay: Chequerboard broth microdilution antifungal susceptibility testing (MIC)
Experimental: (§1) Unless otherwise described, fungal cultures were grown on potato dextrose agar plates at 35° C. until mature (appearance of conidia) and used to prepare suspensions in sterile water. […] These suspensions were then added in equal volume to solutions containing the candidate species described above and incubated at 35° C. for 24 hr. Plates were then analysed for fungal growth inhibition and MIC values determined. […] [MICA (combined)/MICA]+[MICB (combined)/MICB] MICA (combined) is the MIC of drug A when both drugs (i.e. drug A and drug B) are present and MICA is the MIC of drug A used in isolation. Similarly, MICB (combined) is the MIC of drug B when both drugs are present and MICB is the MIC of drug B used in isolation.

[2] = tested on: Rhizopus microsporus; assay: as above
Experimental: as §1

[3] = tested on: Candida Krusei (ATCC strain 6258); assay: Broth dilution susceptibility test, MIC and percent growth (Example 6)
Experimental: A. Preparation of inoculum: • 1. Candida glabrata was grown on Sabouraud dextrose agar (SDA) at 37° C. for 24-48 hrs. • 2. Following this, 5 colonies of 1 mm diameter were picked and suspended in 5 mL sterile saline (0.9% saline) and vortexed for 15 seconds. • 3. Working suspension is prepared as a 1:100 dilution from stock suspension with RPMI 1640 culture medium. • 4. The cell density is adjusted with a spectrophotometer to the transmittance produced by a 0.5 McFarland standard (0.08 to 0.1) OD at 625 nm wavelength.
• 1. For Bromelain, a stock concentration of 1 mg/ml Bromelain solution was prepared in RPMI media and diluted to test concentrations of 62.4, 31.2, 15.6 and 7.8 μg/ml in RPMI 1640 media. • 2. Acetylcysteine stock concentration is 200 mg/ml, diluted to 40, 20, 10, and 5 mg/ml concentrations in RPMI 1640 medium. • 3. These concentrations are prepared at 2× of the required concentrations in the final assay plate.
Antifungal stock concentrations are as follows— • 1. Amphotericin B, Stock concentration: 250 μg/ml in water. • 2. Posaconazole, Original concentration: 300 mg in 16.7 ml, Working stock concentration: 1 mg/ml in DMSO. • 3. Fluconazole, Original concentration: 100 mg in 50 ml, Working stock concentration: 1 mg/ml in DMSO. • 4. The final concentration was prepared in RPMI 1640 media and concentrations range was 0.01-0.5 μg/mL for amphotericin B, 0.01-2 μg/mL for posaconazole and 0.01-64 μg/mL for fluconazole. • 5. These concentrations were prepared at 2× of the required concentrations in the final assay plate.
• 1. Wells of the 96-well plates were inoculated with appropriate concentrations and volumes of drugs. • 2. Sterility control and growth controls are included in each plate. • 3. Each 96-well plate (except the control wells) contains 100 μL of double strength (twice the final antifungal drug) concentrations. • 4. 100 μL of the fungal suspension is added to 96-well plates (except the sterility control wells). • 5. The growth control wells contained 100 μL of sterile drug-free medium and 100 μL of inoculum suspension, while the sterility control wells contained 200 μl of sterile drug-free medium. • 6. Plates are then incubated at 37° C. and read at 625,430, and 530 nm wavelengths. • 7. Data from 24 hours and absorbance at 625 nm were used for analysis.
These experiments were conducted to determine the effect of BromAc alone and in combination with existing antifungal drugs against Candida Krusei (ATCC strain 6258).
The method used in these experiments is essentially the same as that described above in Example 5.

[4] = tested on: Aspergillus; assay: Susceptibility assay of antifungals with BromAc (Example 4); conditions: antifungal in combination with BromAc (5 mg/ml Acetylcysteine+12.5 μg/ml Bromelain) vs alone
Experimental: (§2) The in vitro antifungal properties of Bromelain, Acetylcysteine, BromAc, Amphotericin B, Isavuconazole, Fluconazole and Posaconazole were determined using a broth microdilution method in round bottom 96 well plates in accordance with standard procedures defined by the Clinical Laboratory Standards Institute (CLSI).
(§3) Unless otherwise described, fungal cultures were grown on potato dextrose agar plates at 35° C. until mature (appearance of conidia) and used to prepare suspensions in sterile water. Suspensions were diluted in RPMI 1:60. These suspensions were then added in equal volume to solutions containing the candidate species described above and incubated at 35° C. for 24 hr. Plates were then analysed for fungal growth inhibition and MIC values determined.
(§4) BromAc (5 mg/ml Acetylcysteine+12.5 μg/ml Bromelain) was used in combination with Amphotericin B, Isavuconazole, Posaconazole and Fluconazole. The MIC values of these four antifungal agents against the fungus described below were calculated and compared with their corresponding MIC values in the presence of BromAc, using the standard susceptibility assays described above.
(§5) The fungal strains set out in Table 2, all of which were sourced from a range of clinical isolates from Australian hospitals, were used in these experiments to gain a further understanding of the efficacy of BromAc in combination with Amphotericin B, Isavuconazole, Posaconazole and Fluconazole.

[5] = tested on: Candida kruseii; assay: as above; conditions: antifungal in combination with BromAc (5 mg/ml Acetylcysteine+12.5 μg/ml Bromelain) vs alone
Experimental: as §2, §3, §4, §5

[6] = tested on: Candida parapslosis; assay: as above
Experimental: as §2, §3, §4, §5

[7] = tested on: Candida tropicalis; assay: as above
Experimental: as §2, §3, §4, §5

[8] = tested on: Cunninghamella; assay: as above; conditions: antifungal in combination with BromAc (5 mg/ml Acetylcysteine+12.5 μg/ml Bromelain) vs alone
Experimental: as §2, §3, §4, §5

[9] = tested on: Licthemia; assay: as above; conditions: antifungal in combination with BromAc (5 mg/ml Acetylcysteine+12.5 μg/ml Bromelain) vs alone
Experimental: as §2, §3, §4, §5

[10] = tested on: Lomentospora; assay: as above; conditions: antifungal in combination with BromAc (5 mg/ml Acetylcysteine+12.5 μg/ml Bromelain) vs alone
Experimental: as §2, §3, §4, §5

[11] = tested on: Scedosporium; assay: as above; conditions: antifungal in combination with BromAc (5 mg/ml Acetylcysteine+12.5 μg/ml Bromelain) vs alone
Experimental: as §2, §3, §4, §5

C[C@@H]1[C@H](O)[C@@H](C)/C=C/C=C/C=C/C=C/C=C/C=C/C=C/[C@H](O[C@@H]2O[C@H](C)[C@@H](O)[C@H](N)[C@@H]2O)C[C@@H]2O[C@](O)(C[C@@H](O)C[C@@H](O)[C@H](O)CC[C@@H](O)C[C@@H](O)CC(=O)O[C@H]1C)C[C@H](O)[C@H]2C(=O)O [Amphotericin B]
isolates with 10× increase ([1]; Rhizopus Arrhizus, antifungal with BromAc): 8 of 8 | MIC ([1]; Rhizopus arrhizus, Rhizopus arrhizus (80-21-015-4777), drug alone, read-out: MIC): 0.5 µg/mL (≈ 0.541 µM) | MIC ([1]; Rhizopus arrhizus, eight R. arrhizus strains, read-out: MIC, average over the strains): 0.6 µg/mL (≈ 0.649 µM) | MIC ([1]; Rhizopus arrhizus, isolate R. archizus 1, BromAc at constant concentration where combined, read-out: MIC): 1 µg/mL | MIC ([1]; Rhizopus arrhizus, isolate R. archizus 2, BromAc at constant concentration where combined, read-out: MIC): 0.5 µg/mL | MIC ([1]; Rhizopus arrhizus, isolate R. archizus 3, BromAc at constant concentration where combined, read-out: MIC): 1 µg/mL | MIC ([1]; Rhizopus arrhizus, isolate R. archizus 8, BromAc at constant concentration where combined, read-out: MIC): 0.5 µg/mL | MIC ([1]; Rhizopus arrhizus, isolate R. arrhizus 4, BromAc at constant concentration where combined, read-out: MIC): 0.5 µg/mL | MIC ([1]; Rhizopus arrhizus, isolate R. arrhizus 5, BromAc at constant concentration where combined, read-out: MIC): 0.5 µg/mL | MIC ([1]; Rhizopus arrhizus, isolate R. arrhizus 6, BromAc at constant concentration where combined, read-out: MIC): 1 µg/mL | MIC ([1]; Rhizopus arrhizus, isolate R. arrhizus 7, BromAc at constant concentration where combined, read-out: MIC): 0.5 µg/mL | Observed inhibitory effect ([1]; Rhizopus arrhizus, antifungal in combination with BromAc (5 mg/ml Acetylcysteine+12.5 μg/ml Bromelain) vs alone): Strong (Strong = 5-10x (or greater) inhibitory effect) | effect on fungal culture (in words) ([1]; alone at 0.25 mg/L): not effective | Amphotericin concentration at which complete inhibition was seen ([1]; combined with 25 μg/mL of bromelain): 0.3 mg/L | MICs, range over the strains ([1]; eight R. arrhizus strains): 0.25 to 1 µg/mL | isolates with more than 10× increase ([2]; Rhizopus microspores, antifungal with BromAc): 9 of 10 | MIC ([2]; Rhizopus microsporus, Rhizopus microsporus (80-21-006-5340), drug alone, read-out: MIC): 0.5 µg/mL (≈ 0.541 µM) | MIC ([2]; Rhizopus microsporus, eight R. microsporus strains, read-out: MIC, average over the strains): 0.7 µg/mL (≈ 0.758 µM) | MIC ([2]; Rhizopus microsporus, isolate R. microsporus 1, BromAc at constant concentration where combined, read-out: MIC): 1 µg/mL | MIC ([2]; Rhizopus microsporus, isolate R. microsporus 2, BromAc at constant concentration where combined, read-out: MIC): 1 µg/mL | MIC ([2]; Rhizopus microsporus, isolate R. microsporus 3, BromAc at constant concentration where combined, read-out: MIC): 0.25 µg/mL | MIC ([2]; Rhizopus microsporus, isolate R. microsporus 4, BromAc at constant concentration where combined, read-out: MIC): 0.5 µg/mL | MIC ([2]; Rhizopus microsporus, isolate R. microsporus 5, BromAc at constant concentration where combined, read-out: MIC): 0.5 µg/mL | MIC ([2]; Rhizopus microsporus, isolate R. microsporus 6, BromAc at constant concentration where combined, read-out: MIC): 0.5 µg/mL | MIC ([2]; Rhizopus microsporus, isolate R. microsporus 7, BromAc at constant concentration where combined, read-out: MIC): 0.5 µg/mL | MIC ([2]; Rhizopus microsporus, isolate R. microsporus 8, BromAc at constant concentration where combined, read-out: MIC): 0.5 µg/mL | Observed inhibitory effect ([2]; Rhizopus microsporus, antifungal in combination with BromAc (5 mg/ml Acetylcysteine+12.5 μg/ml Bromelain) vs alone): Strong (Strong = 5-10x (or greater) inhibitory effect) | effect on fungal culture (in words) ([2]; alone at 0.25 mg/L): not effective | MICs, range over the strains ([2]; eight R. microsporus strains): 0.5 to 1 µg/mL | MIC ([3]; Pichia kudriavzevii, ATCC6258, close to 90% inhibition): 1 µg/mL | effect at lower doses / concentrations compared to GC (in words) ([3]; below the MIC (Posaconazole 0.03 μg/ml)): significant inhibition | Observed inhibitory effect [4]: No effect | Observed inhibitory effect [5]: Strong (Strong = 5-10x (or greater) inhibitory effect) | increase in sensitivity ([6]; Candida parapsilosis, antifungal with BromAc): ~10 × | Observed inhibitory effect ([6]; Candida parapslosis, antifungal in combination with BromAc (5 mg/ml Acetylcysteine+12.5 μg/ml Bromelain) vs alone): Strong (Strong = 5-10x (or greater) inhibitory effect) | Observed inhibitory effect ([7]; antifungal in combination with BromAc (5 mg/ml Acetylcysteine+12.5 μg/ml Bromelain) vs alone): Strong (Strong = 5-10x (or greater) inhibitory effect) | isolates with more than a 10× increase in sensitivity ([7]; antifungal with BromAc): 4 of 5 | Observed inhibitory effect [8]: Possible | Observed inhibitory effect [9]: Moderate (Moderate = 1-5x inhibitory effect) | Observed inhibitory effect [10]: No effect | Observed inhibitory effect [11]: No effect
